Data from patent publication US20100160314A1, “Small Molecule Inhibitors of Toll-Like Receptor 9” (priority 2006, published 2010).
Read-outs that look alike come from different tables or passages of the source.

Legend:
Format in all cases: cell-based
[1] = target: T1, TLR9 (Homo sapiens, UniProt Q9NR96); assay: Human PBMC, IFN-α readout using CpG ODN 2395 (TLR9 antagonism)
T1 construct: endogenous in cells; host or cells: freshly isolated human PBMC from donor buffy coats
T1 sequence (Q9NR96 26-1032): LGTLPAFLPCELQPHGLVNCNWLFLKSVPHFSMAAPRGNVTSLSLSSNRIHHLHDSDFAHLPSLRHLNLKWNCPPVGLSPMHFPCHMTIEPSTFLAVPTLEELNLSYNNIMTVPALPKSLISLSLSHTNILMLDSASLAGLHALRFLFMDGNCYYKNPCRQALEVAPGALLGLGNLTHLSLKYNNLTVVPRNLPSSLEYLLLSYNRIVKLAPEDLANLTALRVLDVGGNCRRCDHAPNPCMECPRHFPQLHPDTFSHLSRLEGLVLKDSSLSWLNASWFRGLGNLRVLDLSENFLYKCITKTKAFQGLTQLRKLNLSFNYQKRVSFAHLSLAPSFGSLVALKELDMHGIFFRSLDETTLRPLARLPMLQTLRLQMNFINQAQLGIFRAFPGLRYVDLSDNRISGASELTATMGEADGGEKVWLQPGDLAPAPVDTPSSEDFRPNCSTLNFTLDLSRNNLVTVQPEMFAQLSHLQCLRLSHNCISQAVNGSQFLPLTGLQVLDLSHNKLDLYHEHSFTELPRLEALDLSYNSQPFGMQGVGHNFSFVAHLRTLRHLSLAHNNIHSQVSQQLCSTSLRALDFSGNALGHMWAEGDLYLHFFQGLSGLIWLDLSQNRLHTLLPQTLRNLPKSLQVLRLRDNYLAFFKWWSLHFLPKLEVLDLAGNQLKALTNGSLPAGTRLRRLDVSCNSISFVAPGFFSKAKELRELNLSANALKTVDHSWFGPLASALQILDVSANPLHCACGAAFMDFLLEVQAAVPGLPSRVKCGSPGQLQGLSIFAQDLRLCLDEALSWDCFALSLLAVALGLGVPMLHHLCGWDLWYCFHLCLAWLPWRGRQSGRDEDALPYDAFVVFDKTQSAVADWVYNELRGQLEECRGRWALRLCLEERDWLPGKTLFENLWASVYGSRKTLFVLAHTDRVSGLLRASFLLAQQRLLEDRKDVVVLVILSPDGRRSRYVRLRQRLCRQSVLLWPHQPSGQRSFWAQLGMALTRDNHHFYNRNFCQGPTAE
Source text: (§1) Peripheral blood mononuclear cell (PBMC) buffy coat preparations from healthy male and female human donors were obtained from the Institute for Hemostaseology and Transfusion Medicine of the University of Düsseldorf (Germany).
(§2) PBMC were purified by centrifugation over Ficoll-Hypaque (Sigma). Purified PBMC were washed twice with 1×PBS and resuspended in RPMI 1640 culture medium supplemented with 5% (v/v) heat-inactivated human AB serum (BioWhittaker, Belgium) or 10% (v/v) heat-inactivated fetal calf serum (FCS), 1.5 mM L-glutamine, 100 U/ml penicillin and […] streptomycin (all from Sigma, Deisenhofen, Germany).
(§3) Freshly isolated PBMC were resuspended at a concentration of 3×10^6/ml to 5×10^6/ml with RPMI 1640 culture medium and added to 96-well round-bottomed plates (150 μl/well) which had previously received nothing or selected concentrations (typically 10 μM-0.085 nM as 7-fold serial dilutions) of small molecule. To assay antagonist reaction for TLR9, 1 μM CpG oligodeoxynucleotide (ODN) 2395 ([…]; SEQ ID NO:3) was added to wells containing small molecules. To assay antagonist reaction for TLR7 and TLR8, 0.5 μM oligoribonucleotide (ORN) R-1362 ([…]; SEQ ID NO:4) complexed to 5 μg/ml DOTAP was added to wells containing small molecules. To calculate response to CpG ODN 2395 alone or ORN R-1362+DOTAP alone, wells without small molecules were stimulated with CpG ODN 2395 or ORN R-1362+DOTAP.
(§4) Cells were cultured in a humidified incubator at 37° C. for 16 h. Culture supernatants were then collected and, if not used immediately, frozen at −20° C. until required.
(§5) Amounts of cytokines in the supernatants were assessed using enzyme-linked immunosorbent assays (ELISA) specific for IFN-α or TNF-α using commercially available antibodies or kits from BD Pharmingen or Diaclone, respectively. IFN-α readout using CpG 2395 was used to measure TLR9 response. IFN-α readout using ORN R-1362+DOTAP was used to measure TLR7 response. TNF-α release using R-1362 complexed to DOTAP was used to measure TLR8-mediated immune response.

[2] = target: T2, TLR7 (Homo sapiens, UniProt Q9NYK1); assay: Human PBMC, IFN-α readout using ORN R-1362+DOTAP (TLR7 antagonism)
T2 construct: endogenous in cells; host or cells: freshly isolated human PBMC from donor buffy coats
T2 sequence (Q9NYK1 27-1049): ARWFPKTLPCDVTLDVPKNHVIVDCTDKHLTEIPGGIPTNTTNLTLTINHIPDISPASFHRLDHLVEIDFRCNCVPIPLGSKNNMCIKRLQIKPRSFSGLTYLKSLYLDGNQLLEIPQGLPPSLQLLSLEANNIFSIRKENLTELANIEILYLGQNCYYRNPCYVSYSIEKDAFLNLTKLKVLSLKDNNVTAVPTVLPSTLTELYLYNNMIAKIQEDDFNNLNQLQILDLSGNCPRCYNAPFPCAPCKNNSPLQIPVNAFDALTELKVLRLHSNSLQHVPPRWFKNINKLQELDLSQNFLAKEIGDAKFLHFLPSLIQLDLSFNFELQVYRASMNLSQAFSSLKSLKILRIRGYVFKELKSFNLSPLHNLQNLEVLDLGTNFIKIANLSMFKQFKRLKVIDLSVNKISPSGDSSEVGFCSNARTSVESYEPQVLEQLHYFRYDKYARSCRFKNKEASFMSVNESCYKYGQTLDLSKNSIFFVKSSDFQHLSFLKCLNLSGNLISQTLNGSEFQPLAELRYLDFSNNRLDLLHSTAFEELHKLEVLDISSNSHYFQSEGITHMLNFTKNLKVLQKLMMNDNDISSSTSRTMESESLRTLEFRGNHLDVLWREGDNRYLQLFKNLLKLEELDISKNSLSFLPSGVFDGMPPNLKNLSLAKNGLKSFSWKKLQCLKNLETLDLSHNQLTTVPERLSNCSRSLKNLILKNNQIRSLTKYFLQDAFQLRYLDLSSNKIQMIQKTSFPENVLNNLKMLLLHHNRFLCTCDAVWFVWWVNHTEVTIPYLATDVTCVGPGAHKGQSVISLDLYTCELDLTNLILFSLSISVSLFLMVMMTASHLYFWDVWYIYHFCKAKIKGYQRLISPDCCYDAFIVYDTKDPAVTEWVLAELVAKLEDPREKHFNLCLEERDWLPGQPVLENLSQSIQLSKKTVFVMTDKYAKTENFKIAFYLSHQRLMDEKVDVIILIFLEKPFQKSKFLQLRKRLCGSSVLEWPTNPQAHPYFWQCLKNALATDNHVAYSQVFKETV
Source text: as §1, §2, §3, §4, §5

[3] = target: T3, TLR8 (Homo sapiens, UniProt Q9NR97); assay: Human PBMC, TNF-α release using ORN R-1362+DOTAP (TLR8 antagonism)
T3 construct: endogenous in cells; host or cells: freshly isolated human PBMC from donor buffy coats
T3 sequence (Q9NR97 27-1041): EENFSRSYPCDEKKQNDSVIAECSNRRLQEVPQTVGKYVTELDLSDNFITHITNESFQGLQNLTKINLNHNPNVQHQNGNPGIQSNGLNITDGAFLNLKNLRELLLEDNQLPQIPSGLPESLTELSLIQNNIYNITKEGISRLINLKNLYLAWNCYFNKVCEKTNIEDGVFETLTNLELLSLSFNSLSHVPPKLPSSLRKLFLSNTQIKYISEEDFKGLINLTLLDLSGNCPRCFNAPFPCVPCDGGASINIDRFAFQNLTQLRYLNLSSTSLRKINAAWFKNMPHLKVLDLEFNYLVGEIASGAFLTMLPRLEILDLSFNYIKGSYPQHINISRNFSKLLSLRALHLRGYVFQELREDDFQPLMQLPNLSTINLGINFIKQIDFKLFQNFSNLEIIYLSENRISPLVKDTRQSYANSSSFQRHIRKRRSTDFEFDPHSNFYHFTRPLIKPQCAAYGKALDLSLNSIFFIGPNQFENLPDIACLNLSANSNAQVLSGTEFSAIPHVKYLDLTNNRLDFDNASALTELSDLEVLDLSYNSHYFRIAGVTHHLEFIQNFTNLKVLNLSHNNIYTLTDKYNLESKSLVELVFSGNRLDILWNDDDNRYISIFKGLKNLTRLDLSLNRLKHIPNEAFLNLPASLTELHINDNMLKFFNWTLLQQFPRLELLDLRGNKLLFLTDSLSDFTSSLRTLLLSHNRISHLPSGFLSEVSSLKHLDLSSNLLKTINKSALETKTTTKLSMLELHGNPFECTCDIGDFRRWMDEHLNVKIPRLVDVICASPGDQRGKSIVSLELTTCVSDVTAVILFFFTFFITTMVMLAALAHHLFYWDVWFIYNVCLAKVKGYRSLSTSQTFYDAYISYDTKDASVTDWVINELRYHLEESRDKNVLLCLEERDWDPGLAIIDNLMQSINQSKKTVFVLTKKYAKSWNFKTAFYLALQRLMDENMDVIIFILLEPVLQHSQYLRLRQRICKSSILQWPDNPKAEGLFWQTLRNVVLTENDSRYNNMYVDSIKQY
Source text: as §1, §2, §3, §4, §5

[4] = in vitro testing as described in Example 63, read-out: TLR9 IC50, Experimental
[5] = in vitro testing as described in Example 63, read-out: TLR7 IC50, Experimental
[6] = in vitro testing as described in Example 63, read-out: TLR8 IC50, Experimental

`CN1CCN(c2ccc3nc(-c4ccccc4)cc(NCCN4CCOCC4)c3c2)CC1` [5 (DI)] was tested, and the IC50 [1, 4] was 72 nM, the IC50 [2, 5] was 75 nM and the IC50 [3, 6] was 28 nM.
`CN1CCN(c2ccc(-c3cc(NCCN4CCOCC4)c4ncccc4n3)cc2)CC1` [6 (A3I)] was tested, and the IC50 ([1]; human PBMC, 1 μM CpG ODN 2395, 16 h, IFN-α ELISA, read-out: IC50 TLR9, Experimental) was 73 nM, the IC50 ([2]; human PBMC, 0.5 μM ORN R-1362 + 5 μg/ml DOTAP, 16 h, IFN-α ELISA, read-out: IC50 TLR7, Experimental) was 720 nM and the IC50 ([3]; human PBMC, 0.5 μM ORN R-1362 + 5 μg/ml DOTAP, 16 h, TNF-α ELISA, read-out: IC50 TLR8, Experimental) was 110 nM.
In the case of `CN1CCN(c2ccc(-c3cc(NCCN4CCOCC4)c4ncccc4n3)cc2)CC1` [6 (BIV)], the IC50 [1, 4] is reported as 44 nM, the IC50 [2, 5] is reported as 70 nM and the IC50 [3, 6] is reported as 100 nM.
`CN1CCN(c2cc(NCCN3CCOCC3)c3cc(-c4ccccc4)ccc3n2)CC1` [6 (CI)] was tested, and the IC50 [1, 4] was 200 nM, the IC50 [2, 5] was 200 nM and the IC50 [3, 6] was 600 nM.
In the case of `CN1CCN(c2ccc(-c3cc(NCCN4CCOCC4)c4ncccc4n3)cc2)CC1` [6 (CaI)], the IC50 [1, 4] is reported as 250 nM, the IC50 [2, 5] is reported as 790 nM and the IC50 [3, 6] is reported as 140 nM.
`CN1CCN(c2ccc3nc(-c4ccccc4)nc(NCCN4CCOCC4)c3c2)CC1` [Compound 8 (Example 72)] showed an IC50 [1, 4] of 78 nM, an IC50 [2, 5] of 76 nM and an IC50 [3, 6] of 18 nM.
